Measured values published in PMC9133036 (Nature Communications, 2022).
“And” between values parts separate entries of the source, which are not always exact repeats. Identical values can stand only once.

Key:
Format in all cases: cell-based
OX2R V353A = target: T1, OX2R V353A (Homo sapiens, UniProt O43614, V353A); assay: β-arrestin PathHunter assay, OX2R V353A; settings: β-arrestin recruitment
T1 construct: expressed in transfected cells; host or cells: CHO-K1 cells stably expressing EA β-arrestin2 (DiscoveRX), transiently transfected with pCMV-ProLink OX2R
T1 sequence (O43614 whole entry V353A): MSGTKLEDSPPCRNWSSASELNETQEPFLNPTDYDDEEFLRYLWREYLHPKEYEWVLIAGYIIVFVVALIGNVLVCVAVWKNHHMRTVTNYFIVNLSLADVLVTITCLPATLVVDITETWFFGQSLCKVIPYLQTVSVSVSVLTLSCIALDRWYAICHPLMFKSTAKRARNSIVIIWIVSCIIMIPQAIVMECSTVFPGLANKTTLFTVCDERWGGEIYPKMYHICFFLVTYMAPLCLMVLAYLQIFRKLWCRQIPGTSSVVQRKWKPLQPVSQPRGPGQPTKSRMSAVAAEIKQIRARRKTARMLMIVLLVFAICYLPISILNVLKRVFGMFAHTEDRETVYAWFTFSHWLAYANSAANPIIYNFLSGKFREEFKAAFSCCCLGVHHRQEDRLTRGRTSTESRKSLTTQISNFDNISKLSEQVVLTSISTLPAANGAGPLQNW
T1 sequence (P32121 whole entry partner): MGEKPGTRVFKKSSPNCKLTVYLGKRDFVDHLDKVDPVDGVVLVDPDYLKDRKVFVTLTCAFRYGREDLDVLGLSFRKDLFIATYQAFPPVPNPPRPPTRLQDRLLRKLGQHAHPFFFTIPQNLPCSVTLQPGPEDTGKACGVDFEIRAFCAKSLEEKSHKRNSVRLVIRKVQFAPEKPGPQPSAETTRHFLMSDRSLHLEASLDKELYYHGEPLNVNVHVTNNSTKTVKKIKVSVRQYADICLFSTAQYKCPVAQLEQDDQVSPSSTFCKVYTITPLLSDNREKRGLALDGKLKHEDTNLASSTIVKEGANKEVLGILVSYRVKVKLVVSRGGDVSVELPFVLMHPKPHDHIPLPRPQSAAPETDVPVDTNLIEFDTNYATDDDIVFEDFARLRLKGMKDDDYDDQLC
Method: (§1) β-Arrestin recruitment activity was measured by using the PathHunter system (DiscoveRX) according to the manufacturer’s instruction. Receptor constructs used were the full-length wild-type (or mutant) human OX2R sequences cloned into pCMV-ProLink (DiscoveRX). CHO-K1 cells stably expressing EA β-arrestin2 (DiscoveRX) were plated on 384 well white plates (Thermo Fisher) at 4000 cells/well in HamF12 (Wako Pure Chemical Industries) supplemented with 10% fetal bovine serum (Corning) and penicillin-streptomycin (Wako Pure Chemical Industries) and incubated overnight at 37 °C under 5% CO2. Cells were transfected with plasmids encoding wild type or each mutant ProLink-tagged human OX2R using FuGENE HD (Promega). […] Detection reagent was added and incubated for 1 h at room temperature. Luminescent signal was detected using an EnVision plate reader (PerkinElmer). β-arrestin assays on different constructs were performed in two or three independent experiments (each done in quadruplicate). Dose response curves (shown in Supplementary Fig. 8) were fitted to the three-parameter model ‘log(agonist) vs response’ in GraphPad Prism to determine pEC50 values.

OX2R Q187A = target: T2, OX2R Q187A (Homo sapiens, UniProt O43614, Q187A); assay: β-arrestin PathHunter assay, OX2R Q187A; settings: β-arrestin recruitment
T2 construct: expressed in transfected cells; host or cells: CHO-K1 stably expressing EA β-arrestin2
T2 sequence (O43614 whole entry Q187A): as the sequence (O43614 whole entry V353A) above, with Q187A, A353V counted along it
Method: as §1

human OX1R wild-type = target: T3, human OX1R wild-type (Homo sapiens, UniProt O43613); assay: IP accumulation assay, OX1R WT
T3 construct: FLAG; expressed in transfected cells; host or cells: HEK293
T3 sequence (O43613 1-425): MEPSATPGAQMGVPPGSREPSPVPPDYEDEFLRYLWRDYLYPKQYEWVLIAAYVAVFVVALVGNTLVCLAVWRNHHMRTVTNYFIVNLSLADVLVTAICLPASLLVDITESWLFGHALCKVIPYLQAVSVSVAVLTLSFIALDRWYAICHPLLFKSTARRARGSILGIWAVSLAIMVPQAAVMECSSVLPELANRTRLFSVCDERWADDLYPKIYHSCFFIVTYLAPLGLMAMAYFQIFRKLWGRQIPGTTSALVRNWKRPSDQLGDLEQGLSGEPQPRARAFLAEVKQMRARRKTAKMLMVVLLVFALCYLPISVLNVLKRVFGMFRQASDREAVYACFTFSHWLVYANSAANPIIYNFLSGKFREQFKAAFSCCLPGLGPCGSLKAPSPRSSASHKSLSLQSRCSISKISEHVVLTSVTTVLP
Excerpt: The IP assay was adapted from a prior precedent. HEK293 cells were maintained in DMEM-high glucose (Millipore Sigma) supplemented with 5% fetal bovine serum (Corning) and penicillin-streptomycin (Millipore Sigma). Receptor constructs used were the full-length wild-type (or mutant) human OX1R and OX2R sequences cloned into pCDNA3. To enhance the Emax in the IP assay, a plasmid encoding full-length human Gαq subunit[66] was co-transfected into HEK293 cells with plasmids encoding orexin receptor constructs using Lipofectamine 3000 (Thermo Fisher). 24 h after transfection, the cells were plated on poly-D-lysine coated (Millipore Sigma) tissue culture-treated 96 well white plates with clear bottoms (Perkin Elmer) at 30,000 cells per well in Inositol-free DMEM (MP Biomedicals) supplemented with 5% fetal bovine serum, 4 mM L-glutamine (Millipore Sigma), penicillin-streptomycin, and about 5 uCi (5 ul) per ml myo-[2-3H] inositol (Perkin Elmer). The following day, the media was replaced with agonists that were diluted in HBSS (Millipore Sigma) containing 10 mM lithium chloride (Millipore Sigma) and incubated at 37 °C for 45 min. Then agonists were removed and cells were lysed on ice for 30 min with 10 mM formic acid (Millipore Sigma). 1.25 mg of poly-lysine coated YSI SPA beads (Perkin Elmer) was added to each well. The plates were mixed on an orbital shaker for 30 min. The plates were read on a MicroBeta scintillation counter (Perkin Elmer) the following day. IP accumulation assays on different constructs were performed in n ≥ 3 independent experiments (each done in duplicate), where n is shown in Supplementary Table 2.

human OX2R wild type = target: T4, human OX2R wild type (Homo sapiens, UniProt O43614); assay: β-arrestin PathHunter assay, OX2R WT; design: expressed in transfected cells; host or cells: CHO-K1 stably expressing EA β-arrestin2; settings: listed as OxB
T4 sequence (O43614 1-444): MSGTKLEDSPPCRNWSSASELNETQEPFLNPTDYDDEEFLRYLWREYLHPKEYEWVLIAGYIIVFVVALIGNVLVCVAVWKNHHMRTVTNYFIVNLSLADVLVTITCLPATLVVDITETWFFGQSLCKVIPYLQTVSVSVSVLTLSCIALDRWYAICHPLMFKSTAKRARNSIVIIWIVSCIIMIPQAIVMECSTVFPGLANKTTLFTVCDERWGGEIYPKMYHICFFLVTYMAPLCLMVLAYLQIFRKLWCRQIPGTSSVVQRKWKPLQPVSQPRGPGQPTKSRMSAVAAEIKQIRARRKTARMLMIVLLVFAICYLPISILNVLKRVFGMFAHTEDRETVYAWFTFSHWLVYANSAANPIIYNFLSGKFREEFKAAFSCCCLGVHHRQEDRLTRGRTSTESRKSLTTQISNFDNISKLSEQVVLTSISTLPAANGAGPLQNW
Method: β-Arrestin recruitment activity was measured by using the PathHunter system (DiscoveRX) according to the manufacturer’s instruction. Receptor constructs used were the full-length wild-type (or mutant) human OX2R sequences cloned into pCMV-ProLink (DiscoveRX). […] Cells were transfected with plasmids encoding wild type or each mutant ProLink-tagged human OX2R using FuGENE HD (Promega). […] Detection reagent was added and incubated for 1 h at room temperature. Luminescent signal was detected using an EnVision plate reader (PerkinElmer). β-arrestin assays on different constructs were performed in two or three independent experiments (each done in quadruplicate). Dose response curves (shown in Supplementary Fig. 8) were fitted to the three-parameter model ‘log(agonist) vs response’ in GraphPad Prism to determine pEC50 values.

Row | Molecule | EC50 (OX2R V353A) [µM] | EC50 (OX2R Q187A) [µM] | activation at 100 µM (human OX1R wild-type; 0.75 h, TAK-925 conc (log, M) -4.00, normalized to S103T/A127T Emax) [%] | activation at 33.1 µM (human OX1R wild-type; 0.75 h, TAK-925 conc (log, M) -4.48) [%] | activation at 11.2 µM (human OX1R wild-type; 0.75 h, TAK-925 conc (log, M) -4.95) [%] | activation at 3.72 µM (human OX1R wild-type; 0.75 h, TAK-925 conc (log, M) -5.43) [%] | activation at 1.23 µM (human OX1R wild-type; 0.75 h, TAK-925 conc (log, M) -5.91) [%] | activation at 0.0457 µM (human OX1R wild-type; 0.75 h, TAK-925 conc (log, M) -7.34) [%] | pEC50 (human OX1R wild-type; IP accumulation) | EC50 (human OX1R wild-type; IP accumulation, non-saturating) [µM] | beta-arrestin recruitment fold change (human OX2R wild type; OxB concentration -6.00 (log, M)) | beta-arrestin recruitment fold change (human OX2R wild type; OxB concentration -6.52 (log, M)) | beta-arrestin recruitment fold change (human OX2R wild type; OxB concentration -7.00 (log, M)) | beta-arrestin recruitment fold change (human OX2R wild type; OxB concentration -7.52 (log, M)) | beta-arrestin recruitment fold change (human OX2R wild type; OxB concentration -8.00 (log, M)) | beta-arrestin recruitment fold change (human OX2R wild type; OxB concentration -8.52 (log, M)) | beta-arrestin recruitment fold change (human OX2R wild type; OxB concentration -9.00 (log, M)) | beta-arrestin recruitment fold change (human OX2R wild type; OxB concentration -10.00 (log, M))
1 | COC(=O)N1CCC[C@H](NS(C)(=O)=O)[C@@H]1CO[C@H]1CC[C@@H](c2ccccc2)CC1 [TAK-925, methyl (2R,3S)−3-[(methylsulfonyl)amino]−2-{[(cis−4-phenylcyclohexyl)oxy]methyl}piperidine-1-carboxylate] | 5.5 | 3.2 | 59 | 40.3 | 23.1 | 13.6 | 8.76 | 7.24 | not saturating | > 100 | – | – | – | – | – | – | – | –
2 | orexin B | – | – | – | – | – | – | – | – | – | – | 25.382 fold and 21.415 fold and 21.711 fold and 14.809 fold | 25.694 fold and 21.531 fold and 23.664 fold and 15.569 fold | 27.509 fold and 22.224 fold and 24.930 fold and 18.908 fold | 19.878 fold and 18.553 fold and 19.712 fold and 17.639 fold | 16.213 fold and 13.992 fold and 16.040 fold and 14.141 fold | 11.509 fold and 10.398 fold and 11.514 fold and 8.169 fold | 4.809 fold and 5.512 fold and 5.245 fold and 5.387 fold | 1.518 fold and 1.553 fold and 1.554 fold and 2.080 fold
